The subject of one test is Aβ42. In words: Aβ42 concentration in cerebrospinal fluid of 5×FAD mice. It is filed as in vivo, mouse. As to conditions: 1 mg/kg twice a week for 3 months; compared to controls. The protocol:
(§1) 5×FAD mice received chronic treatments with drugs or vehicle according to 2 different protocols. In each experiment, drugs or vehicle solution were administered i.p. twice a week (1 mg/kg). In “Protocol 1”, mice (n=6-7 mice per group) were treated with compounds for two months, from 2 to 4 months of age. In “Protocol 2”, mice (n=7) were treated with compounds for three months, from 1 month to 4 months of age. At the end of each protocol, mice were anesthetized with a mixture of 100 mg/kg ketamine and 10 mg/kg xylazine in saline solution and perfused transcardially with PBS. Brains were quickly isolated on ice, the olfactory bulbs and cerebellum removed and the two hemispheres divided. One hemisphere was frozen on dry ice and stored at −80° C. for biochemical analysis, while the other was post-fixed in 4% PFA for immunohistochemistry (IHC).
Mice were anesthetized and mounted onto a stereotaxic instrument. The neck skin was cut and subcutaneous tissue and muscles separated with the help of micro-retractors (Fine Science Tools, Heidelberg, Germany). Mice were then laid down so that the head formed an angle of about 135° with the body (Liu and Duff (2008) J. Vis. Exp. 10:960). A capillary tube (Borosilicate glass, B100-75-10, Sutter Instruments, Novato, Calif., USA) was used to punch the dura mater of the cisterna magna. CSF was collected by capillary action and transferred to 0.5 mL microtubes, immediately frozen on dry ice and stored at −80° C. until use. Once thawed, samples were heated at 60° C. for 5 min as described in the international application WO 2008/009868 and analyzed without further freezing-thawing cycles.
ELISA kits from IBL International (Hamburg, Germany) for the dosage of Aβ40 (human amyloid β (1-40) assay kit, #27713) or Aβ42 (human amyloid β (1-42) assay kit, #27719) were used according to the manufacturer's instructions. Reactions were read at 620 nm and 450 nm using an Infinite 2000 luminescence counter. The obtained values were normalized to the protein concentration of each sample, measured using a BCA protein assay (Sigma-Aldrich). […]

The next test relates to amyloid plaques. Briefly: Number of amyloid plaques (thioflavin T) in 5×FAD mouse brain. Particulars: 1 mg/kg twice a week for 3 months. It is filed as in vivo. The method, then: as §1
(§2) Thirty-micrometer-thick sections were cut using a vibratome (Microm HM 650V, Thermo Scientific, Saint Herblain, France) and stored in cryoprotectant medium at −20° C. For the labeling of amyloid plaques, free-floating tissue sections of frontal cortex, hippocampus and entorhinal cortex (coordinates from the bregma: frontal cortex=1.98 mm, hippocampus=−1.94 mm, entorhinal cortex=−3.08 mm) were extensively washed in PBS and then incubated in blocking solution (PBS; 3% BSA; 0.1% Triton X-100) for 1 h. Sections were stained with Hoechst dye (1:1000, Life Technologies, Saint Aubin, France) for 15 minutes to detect cell nuclei and then with freshly prepared thioflavin T solution (#T3516-5G, Sigma-Aldrich) (final concentration: 0.01 mg/ml in blocking buffer) for 15 minutes. After washing in 70% ethanol for 5 minutes, samples were mounted on poly-lysine slides with coverslips. For GFAP (glial fibrillary acidic protein) staining, free-floating brain sections were blocked as before and incubated with polyclonal rabbit anti-GFAP (1:1000, Z0334, Dako, Les Ullis, France) at 4° C. overnight. After thioflavin T staining and washing with 70% ethanol, the secondary Alexafluor 594 goat anti-rabbit antibody (1:1000, A11012, Life Technologies) was added for 2 h. PBS washes and mounting were performed as described before.
(§3) Images were acquired with an Axiolmager Z1 microscope (Carl Zeiss S.A.S., Marly le Roi, France). Analysis of thioflavin T staining was performed blindly and data are presented as the mean number of particles per mm^2 in two to three tissue sections from the same brain area/animal (Image J software). GFAP expression was quantified using Image J software and results are expressed as area fractions.
(§4) 28 female 5×FAD mice (C57BL/6J genetic background) were used in this study. Mice received vehicle or compounds (1 mg/kg) i.p., twice a week for three months, from 1 to 4 months of age.
Anti-amyloid effect. Frontal cortex, hippocampus and entorhinal cortex were analyzed as representative areas of 5×FAD mouse brain (frontal, median and caudal sections) and of human brain regions that are affected early by Alzheimer's disease and are highly enriched in amyloid deposits.

Another test relates to GFAP. In words: Astrogliosis (GFAP staining) in 5×FAD mouse brain. The format is in vivo. Particulars: 1 mg/kg twice a week for 3 months. The protocol: as §1, §2, §3, §4
The subject of the next test is 5×FAD mice. Briefly: Novel object recognition test in 5×FAD mice. The format is in vivo, mouse. As to conditions: 1 mg/kg twice a week for 3 months; 24 h inter-session interval. The protocol:
Animal experiments were carried out in accordance with the Directive by the Council of the European Communities of Nov. 24, 1986 (86/609/EEC). All efforts were made to minimize animal suffering and to reduce the number of mice used. The generation of 5×FAD mice was described in Oakley et al. (2006) J. Neurosci. 26:10129-10140. These transgenic mice overexpress both human APP (695) harboring the Swedish (K670N, M671L), Florida (1716V) and London (V7171) familial AD (FAD) mutations and human Presenilin 1 (PS1) harboring the two FAD mutations M146L and L286V. Expression of both transgenes is regulated by neuronal-specific elements of the mouse Thy1 promoter. The 5×FAD strain (B6/SJL genetic background) was maintained by crossing hemizygous transgenic mice with B6/SJL F1 breeders. The 5×FAD strain (C57BL/6J genetic background) was maintained by crossing hemizygous transgenic mice with C57BL/6J F1 breeders. All animals were genotyped by PCR using tail genomic DNA. Transgenic and WT mice were bred in our animal facility, had access to food and water ad libitum and were housed under a 12 h light-dark cycle at 22-24° C. Female 5×FAD mice were used in this study. For each experiment, the age of mice is indicated in months (with a two-week range).
Compounds were resuspended in DMSO (37.5 μg/μl, stored at −20° C.) and freshly diluted 1:250 in 0.9% NaCl prior administration. Vehicle solution (0.9% NaCl, 0.4% DMSO) was used as control.
5×FAD mice received chronic treatments with drugs or vehicle according to 2 different protocols. In each experiment, drugs or vehicle solution were administered i.p. twice a week (1 mg/kg). […]
The cognitive performance of mice was tested using the novel object recognition (NOR) test (Bevins and Besheer (2006) Nat. Protoc. 1:1306-1311). […] The whole experiment was video-recorded and object exploration [time spent by the mouse nose in contact with the object or by sniffing it at a distance s 1 cm] was blindly measured. […] A discrimination index was also calculated ([novel−familiar]/[familiar+novel]). […]

On to `CCCCN1CCC(CCC(=O)c2cc(Cl)c(N)cc2OC)CC1` [RS 67333, 1-(4-amino-5-chloro-2-methoxy-phenyl)-3-(1-butyl-4-piperidinyl)-1-propanone, reference compound], for which, in the test with Aβ42, the “Aβ42 concentration in cerebrospinal fluid (CSF)” value was “not significantly different”. For the same compound, the “Amyloid plaque number in hippocampus” value in the test on amyloid plaques (compared to controls) is recorded as “not significantly different”. Also, in the test on amyloid plaques (compared to vehicle), the “reduction of the number of amyloid plaques in entorhinal cortex” value was “No significant effect” and the “reduction of the number of amyloid plaques in frontal cortex” value is “No significant effect”. For the same compound, the “GFAP staining in frontal cortex or hippocampus” value in the test on GFAP (compared to controls) is “not significantly different”. Further, in the test with GFAP (compared to vehicle), the “decrease of GFAP staining in entorhinal brain slices” value came out at 62±6%. Moreover, in the test with 5×FAD mice, the “recognition memory, exploration of novel vs familiar object (NOR)” value is reported as “reverses cognitive impairment”.

Values taken from patent US20220031680A1, “Donecopride As Neuroprotective Agent In the Treatment of Neurodegenerative Diseases” (priority 2018, published 2022).
